Reference: patent US6624199B1, “Aminobenzophenones” (Leo Pharmaceuticals Products Ltd. A/S, priority 1999, dated 2003)
Entries after “also recorded” stand apart in the source; their conditions may differ. Like-named read-outs stand apart in the source and are kept apart here.

Experiments:
[1] = system: utriculi (pseudocomedones) of rhino mouse skin; experiment: Rhino mouse model (comedolytic and hyperplastic potency, skin irritation); conditions: for Skin irritation YES/NO / % increase in epidermal thickness / % reduction in number of utriculi: once daily for three weeks; for comedolytic effect (reduction in number of utriculi), in words / epidermal hyperplasia (increase in epidermal thickness and follicular epithelia), in words: 1.5% concentration in acetone, three weeks; for clinical visible skin irritancy, in words: three weeks treatment period
Description: (§3) The rhino mouse is an in vivo model for the study of hyperplastic and comedolytic potency of various drugs used in the treatment of acne. The rhino mouse has follicles on the skin. The orifices are distended with horny material and these structures resembles human microcomedones and are referred to as utriculi or pseudocomedones.
(§4) In the present study the effect of a number of compounds were evaluated in the rhino mouse model. […] Additionally a number of marketed products used today for treatment of acne were selected and included for comparison.
(§5) The animals were treated once daily for three weeks including weekends. […] Histological evaluation of the skin was performed at the end of the treatment period.

[2] = system: Oxazolone-induced contact dermatitis in the mouse ear; experiment: Model 1: oxazolone-induced contact dermatitis in the mouse ear; format: in vivo; conditions: topical in acetone 30 min post-challenge, 0.5 mg/ear (all-trans retinoic acid 0.01 mg/ear)
Description: (§1) For in vivo assays, the test compounds were dissolved in acetone. Adapalene was tested as a gel formulation (Differin gel 0.1%, 20-30 mg/treatment). The screening doses were 0.5 mg/ear in model 1 and 2. Exception was all-trans retinoic acid (0.01 mg/ear).
Model 1. Oxazolone-induced Contact Dermatitis in the Mouse Ear
AIM Compounds with anti-inflammatory effects in this model may be useful in treating contact eczema in man.
METHODS Groups of 5-6 mice sensitised to oxazolone 4 days before challenge with oxazolone to the right ear. The resulting oedema (right ear thickness minus left ear thickness) is measured 24, 48 and 72 hours post-challenge (PC), and neutrophil (PMN) influx is determined by the myeloperoxidase (MPO) method 72 hours post-challenge in ear biopsies. The screening dose is 0.5 mg/ear or less applied to the right ear 30 min post-challenge (+30 min). Other dosing regimes are stated.
(§2) RESULTS Results are recorded as % change from control animals using the formula: 100(T/C-1) where T=mean Oedema/MPO treated group and C=mean Oedema/MPO control group. Negative figures represent inhibition and positive stimulation. The level of significance is set at p<0.05 using the Mann-Whitney's U-test. Significant stimulation is stated.

[3] = system: TPA-induced chronic skin inflammation in the mouse ear; experiment: Model 2: TPA-induced chronic skin inflammation in the mouse ear; format: in vivo; conditions: topical in acetone twice daily day 8-10, once day 11, 0.5 mg/ear (all-trans retinoic acid 0.01 mg/ear)
Description: as §1
Model 2. Tpa-induced Chronic Skin Inflammation in the Mouse Ear
AIM Compounds with anti-inflammatory effects in this model may be useful in treating chronic skin disorders in man.
METHODS In groups of 5-6 mice, ear inflammation is induced by multiple topical applications of TPA on alternate days during a 10-day period. The resulting inflammation is treated topically with compounds in acetone solution twice daily on day 8, 9 and 10 and once on day 11. Ear thickness (ET) is determined 5-6 hours after the last drug administration, the mice are sacrificed and myeloperoxidase (MPO) activity (=PMN-infiltration) is determined in ear biopsies, cf. De Young, L. M. et al, Agents Actions, 26, 335-341 (1989); Carlson, R. P. et al, Agents Actions, 17, 197-204 (1985); Alford, J. G. et al, Agents Action, 37, (1992); Stanley, P. L. et at, Skin Pharmacol, 4, 262-271 (1991).
as §2, with “group” for “animals”, “ET/MPO” for “Oedema/MPO”

[4] = cited from earlier work
[5] = system: utriculi (pseudocomedones) of rhino mouse skin; conditions: in vivo
Description: as §3, §4, §5

[6] = Differin gel 0.1%, versus untreated controls
[7] = 1.5% in acetone, versus vehicle control
[8] = Basiron gel 5%, versus untreated controls
[9] = Basiron gel 10%, versus untreated controls
[10] = Skinoren cream 20%, versus untreated controls
[11] = 20 μg/ml in ethanol, period 1, versus vehicle control

COc1ccc(-c2ccc3cc(C(=O)O)ccc3c2)cc1C12CC3CC(CC(C3)C1)C2 [Adapalene]
Skin irritation YES/NO ([1]; Differin gel 0.1%): YES | % increase in epidermal thickness [1, 6]: 202% | % reduction in number of utriculi [1, 6]: 92.7%

Cc1ccccc1C(=O)c1ccc(Nc2ccccc2N)cc1Cl [Compound 103, 4-(2-aminophenylamino)-2-chloro-2′-methylbenzophenone]
SCORE OXA Oedema 48 hours p.c. [2]: 2 (% inhibition Oedema 48 h PC ≧ 35 p < 0.05) | SCORE TPA Ear swelling [3]: 2 (% inhibition ET ≧40 p < 0.05) | comedolytic effect (reduction in number of utriculi), in words [1]: comedolytic effect | epidermal hyperplasia (increase in epidermal thickness and follicular epithelia), in words [1]: epidermal hyperplasia | comedolytic effect (reduction in number of utriculi), in words ([1]; listed as 4-(2-aminophenylamino)-2-chloro-2′-methylbenzophenone): comedolytic activity | % increase in epidermal thickness [1, 7]: 120% | % reduction in number of utriculi [1, 7]: 52.5% | clinical visible skin irritancy, in words [1]: without concomitant skin irritancy

CN(C)c1ccc(O)c2c1C[C@H]1C[C@H]3[C@H](N(C)C)C(O)=C(C(N)=O)C(=O)[C@@]3(O)C(O)=C1C2=O [Minocyclin]
Anti-inflam. ([4]; systemic administration): Yes | Antibacterial ([4]; systemic administration): Yes | Comedolytic ([4]; systemic administration): No | Teratogenic ([4]; systemic administration): Yes

CCOC(=O)Nc1ccccc1Nc1ccc(C(=O)c2ccccc2C)c(Cl)c1 [Compound 106, ethyl N-(2-(4-(2-methylbenzoyl)-3-chlorophenylamino)phenyl)carbamate]
SCORE OXA Oedema 48 hours p.c. [2]: 2 (% inhibition Oedema 48 h PC ≧ 35 p < 0.05) | SCORE TPA Ear swelling [3]: 2 (% inhibition ET ≧40 p < 0.05) | comedolytic effect (reduction in number of utriculi), in words [1]: comedolytic effect | epidermal hyperplasia (increase in epidermal thickness and follicular epithelia), in words [1]: epidermal hyperplasia | comedolytic effect (reduction in number of utriculi), in words ([1]; listed as ethyl N-(2-(4-(2-methylbenzoyl)-3-chlorophenylamino)phenyl)carbamate): comedolytic activity | % increase in epidermal thickness [1, 7]: 146% | % reduction in number of utriculi [1, 7]: 38.3% | clinical visible skin irritancy, in words [1]: without concomitant skin irritancy

O=C(OOC(=O)c1ccccc1)c1ccccc1 [Benzoyl peroxide]
SCORE OXA Oedema 48 hours p.c. [2]: 0 (% inhibition Oedema 48 h PC < 25) | SCORE TPA Ear swelling [3]: 0 (% inhibition ET <25) | Anti-inflam. ([4]; topical administration): Maybe | Antibacterial ([4]; topical administration): Yes | Comedolytic ([4]; topical administration): Some- | Potential irritant ([4]; topical administration): Yes | Skin irritation YES/NO ([1]; Basiron gel 5%): YES | % increase in epidermal thickness [1, 8]: 178% | % reduction in number of utriculi [1, 8]: 46.1% | Skin irritation YES/NO ([1]; Basiron gel 10%): YES | % increase in epidermal thickness [1, 9]: 190% | % reduction in number of utriculi [1, 9]: 62.1%

Cc1ccccc1C(=O)c1ccc(Nc2ccc(Br)cc2N)cc1Cl [Compound 101, 4-(2-Amino-4-bromophenylamino)-2-chloro-2′-methylbenzophenone]
SCORE OXA Oedema 48 hours p.c. [2]: 2 (% inhibition Oedema 48 h PC ≧ 35 p < 0.05) | SCORE TPA Ear swelling [3]: 3 (% inhibition ET ≧50 p < 0.05) | comedolytic effect (reduction in number of utriculi), in words [1]: comedolytic effect; also recorded: most pronounced comedolytic activity | epidermal hyperplasia (increase in epidermal thickness and follicular epithelia), in words [1]: epidermal hyperplasia | % increase in epidermal thickness [1, 7]: 203% | % reduction in number of utriculi [1, 7]: 67.4% | clinical visible skin irritancy, in words [1]: without concomitant skin irritancy

C[C@H]1c2cccc(O)c2C(O)=C2C(=O)[C@]3(O)C(O)=C(C(N)=O)C(=O)[C@@H](N(C)C)[C@@H]3[C@@H](O)[C@@H]21 [Doxycyclin]
Anti-inflam. ([4]; systemic administration): Yes | Antibacterial ([4]; systemic administration): Yes | Comedolytic ([4]; systemic administration): No | Potential irritant ([4]; systemic administration): No | Teratogenic ([4]; systemic administration): Yes

CN(C)[C@@H]1C(=O)C(C(N)=O)=C(O)[C@@]2(O)C(=O)C3=C(O)c4c(O)cccc4[C@@](C)(O)[C@H]3C[C@@H]12 [Tetracyclin]
Anti-inflam. ([4]; systemic administration): Yes | Antibacterial ([4]; systemic administration): Yes | Comedolytic ([4]; systemic administration): No | Potential irritant ([4]; systemic administration): No | Teratogenic ([4]; systemic administration): Yes

CC[C@H]1OC(=O)[C@H](C)[C@@H](O[C@H]2C[C@@](C)(OC)[C@@H](O)[C@H](C)O2)[C@H](C)[C@@H](O[C@@H]2O[C@H](C)C[C@H](N(C)C)[C@H]2O)[C@](C)(O)C[C@@H](C)C(=O)[C@H](C)[C@@H](O)[C@]1(C)O [Erythromycin]
SCORE OXA Oedema 48 hours p.c. [2]: 0 (% inhibition Oedema 48 h PC < 25) | SCORE TPA Ear swelling [3]: 1 (% inhibition ET ≧25 p < 0.05)

O=C(O)CCCCCCCC(=O)O [Azelaic acid]
SCORE OXA Oedema 48 hours p.c. [2]: 0 (% inhibition Oedema 48 h PC < 25) | SCORE TPA Ear swelling [3]: 0 (% inhibition ET <25) | Skin irritation YES/NO [5]: NO | Anti-inflam. ([4]; topical administration): Maybe | Antibacterial ([4]; topical administration): Yes | Comedolytic ([4]; topical administration): Yes | Potential irritant ([4]; topical administration): Yes | Teratogenic ([4]; topical administration): No | % increase in epidermal thickness [1, 10]: 75% | % reduction in number of utriculi [1, 10]: 5.7%

CC1=C(/C=C/C(C)=C/C=C/C(C)=C\C(=O)O)C(C)(C)CCC1 [Isotretinoin]
Anti-inflam. ([4]; systemic administration): Yes | Antibacterial ([4]; systemic administration): Yes | Comedolytic ([4]; systemic administration): Yes | Potential irritant ([4]; systemic administration): Yes | Teratogenic ([4]; systemic administration): Yes

CCC[C@@H]1C[C@@H](C(=O)N[C@@H]([C@H]2O[C@H](SC)[C@H](O)[C@@H](O)[C@H]2O)[C@H](C)Cl)N(C)C1 [Clindamycin]
Teratogenic ([4]; topical administration): Probably

Cc1ccccc1C(=O)c1ccc(Nc2ccc(F)cc2N)cc1Cl [Compound 102, 4-(2-Amino-4-fluorophenylamino)-2-chloro-2′-methylbenzophenone]
comedolytic effect (reduction in number of utriculi), in words [1]: comedolytic effect | epidermal hyperplasia (increase in epidermal thickness and follicular epithelia), in words [1]: epidermal hyperplasia

CC1=C(/C=C/C(C)=C/C=C/C(C)=C/C(=O)O)C(C)(C)CCC1 [All-trans retinoic acid]
SCORE OXA Oedema 48 hours p.c. [2]: 0 (% inhibition Oedema 48 h PC < 25) | SCORE TPA Ear swelling [3]: 0 (% inhibition ET <25) | Anti-inflam. ([4]; topical administration): No | Antibacterial ([4]; topical administration): No | Comedolytic ([4]; topical administration): Yes | Potential irritant ([4]; topical administration): Yes | Teratogenic ([4]; topical administration): Maybe | Skin irritation YES/NO ([1]; 20 μg/ml in ethanol, period 1): YES | % increase in epidermal thickness [1, 11]: 110% | % reduction in number of utriculi [1, 11]: 81.5%
